Results: US5498780A, “Platinum complex and malignant tumor treating drug containing the same” (SS Pharmaceutical Co., Ltd., priority 1994, dated 1996)

Tests used:
[1] = tested on: murine L1210 leukemia cell; test: Antitumor effect on murine L1210 leukemia cell (increase in life-span of inoculated mice); format: in vivo, murine; male CDF1 mice; conditions: Table 5 test lot; for ILSmax (maximum percent increase in life-span) / ILS50 (dose which shows 50% of the ILS value by 5 administrations) / dose corresponding to ILSmax: L1210, i.p. once a day for 5 days; for ILSmax (maximum percent increase in life-span): 30 days observation; for ILS50 (dose which shows 50% of the ILS value by 5 administrations): linear regression; for TI (therapeutic index, LD50 value/ILS50 value): L1210
Experimental: (§1) Murine L1210 leukemia cells (1×10^5 cells) were inoculated peritoneally into six-week-old male CDF1 mice on day 0. From the next day after the inoculation, a drug (the compound of the invention or a compound for comparison) was administered peritoneally once a day for 5 days. After 30 days of observation, the percent increase in life-span (ILS) was calculated as follows: […]
(§2) T: mean survival days of the drug-treated group
(§3) C: mean survival days of control group
(§4) In these tables, ILSmax means maximum ILS value (%), and corresponding dose (mg/kg) is Shown in parenthesis.

[2] = tested on: cisplatin-resistant murine L1210 leukemia cell (L1210/DDP); test: Antitumor effect on cisplatin-resistant murine L1210 leukemia cell (L1210/DDP); format: in vivo, murine; male CDF1 mice; conditions: Table 7 test lot; for ILSmax (maximum percent increase in life-span) / dose corresponding to ILSmax / ILS50 (dose which shows 50% of the ILS value by 5 administrations): i.p. once a day for 5 days; for ILSmax (maximum percent increase in life-span): 30 days observation; for ILS50 (dose which shows 50% of the ILS value by 5 administrations): linear regression
Experimental: as §1, §2, §3
In these tables, ILSmax means maximum ILS value (%), and corresponding dose (mg/kg) is Shown in parenthesis. In this test, cisplatin and carboplatin were respectively tested in each test lot for accurate comparison.
Antitumor effect on cisplatin-resistant murine L1210 leukemia cell (L1210/DDP):
The test of Test Example 1 was repeated except that cisplatin-resistant murine L1210 leukemia cell (L1210/DDP) was used instead of murine L1210 leukemia cell.

[3] = 50% lethal dose by single peritoneal administration, obtained at the time of the dose setting; format: in vivo, CDF1 mice
From the text: as §4

[4] = tested on: murine P388 leukemia cell; test: Antitumor effect on murine P388 leukemia cell; format: in vivo, murine; male CDF1 mice; conditions: Table 9 test lot; for ILSmax (maximum percent increase in life-span) / ILS50 (dose which shows 50% of the ILS value by 5 administrations) / dose corresponding to ILSmax: P388, i.p. once a day for 5 days; for ILSmax (maximum percent increase in life-span): 30 days observation; for ILS50 (dose which shows 50% of the ILS value by 5 administrations): linear regression; for TI (therapeutic index, LD50 value/ILS50 value): P388
Experimental: as §1, §2, §3, §4
Antitumor effect on murine P388 leukemia cell:
The test of Test Example 1 was repeated except that 1×10^6 of murine P388 leukemia cells were used instead of 1×10^5 of murine L1210 leukemia cells.

## CC(C)(C)ON.N.[Cl][Pt][Cl] [Compound No. 7, cis-dichloroammine (O-tert-butylhydroxylamine)platinum(II)]
[1]
  ILSmax (maximum percent increase in life-span): > 181.3%
  ILS50 (dose which shows 50% of the ILS value by 5 administrations): 1.5 mg/kg
  dose corresponding to ILSmax: 8.0 mg/kg
  TI (therapeutic index, LD50 value/ILS50 value): 14.7
[2]
  TI (therapeutic index, LD50 value/ILS50 value): > 22.1
  ILSmax (maximum percent increase in life-span): > 206.1%
  dose corresponding to ILSmax: 1.0 mg/kg
  ILS50 (dose which shows 50% of the ILS value by 5 administrations): < 1.0 mg/kg
[3]
  LD50 (50% lethal dose): 22.1 mg/kg
[4]
  ILSmax (maximum percent increase in life-span): 92.3%
  ILS50 (dose which shows 50% of the ILS value by 5 administrations): < 1.0 mg/kg
  dose corresponding to ILSmax: 2.0 mg/kg
  TI (therapeutic index, LD50 value/ILS50 value): > 22.1

## CCCO[NH][Pt]([NH2])([Cl])[Cl] [Compound No. 8, cis-dichloroammine (O-propylhydroxylamine)platinum(II)]
[1]
  ILSmax (maximum percent increase in life-span): > 131.3%
  ILS50 (dose which shows 50% of the ILS value by 5 administrations): 0.8 mg/kg
  dose corresponding to ILSmax: 4.0 mg/kg
  TI (therapeutic index, LD50 value/ILS50 value): 13.8
[2]
  TI (therapeutic index, LD50 value/ILS50 value): > 22.0
  ILSmax (maximum percent increase in life-span): > 175.5%
  dose corresponding to ILSmax: 1.0 mg/kg
  ILS50 (dose which shows 50% of the ILS value by 5 administrations): < 0.5 mg/kg
[3]
  LD50 (50% lethal dose): 11.0 mg/kg
[4]
  ILSmax (maximum percent increase in life-span): 101.9%
  ILS50 (dose which shows 50% of the ILS value by 5 administrations): < 0.5 mg/kg
  dose corresponding to ILSmax: 2.0 mg/kg
  TI (therapeutic index, LD50 value/ILS50 value): > 22.0

## N.NOC1CCCCC1.[Cl][Pt][Cl] [Compound No. 9, cis-dichloroammine (O-cyclohexylhydroxylamine)platinum(II)]
[1]
  ILSmax (maximum percent increase in life-span): 108.8%
  ILS50 (dose which shows 50% of the ILS value by 5 administrations): 1.3 mg/kg
  dose corresponding to ILSmax: 4.0 mg/kg
  TI (therapeutic index, LD50 value/ILS50 value): 17.0
[2]
  TI (therapeutic index, LD50 value/ILS50 value): > 22.1
  ILSmax (maximum percent increase in life-span): > 206.1%
  dose corresponding to ILSmax: 1.0 mg/kg
  ILS50 (dose which shows 50% of the ILS value by 5 administrations): < 1.0 mg/kg
[3]
  LD50 (50% lethal dose): 22.1 mg/kg
[4]
  ILSmax (maximum percent increase in life-span): 114.4%
  ILS50 (dose which shows 50% of the ILS value by 5 administrations): < 1.0 mg/kg
  dose corresponding to ILSmax: 4.0 mg/kg
  TI (therapeutic index, LD50 value/ILS50 value): > 22.1
